Test results: paper PMC13427755 (Nature Communications, 2026)
Where a SMILES comes first, the peptide text is derived from it.

Columns and labels:
participants with IPF = test system: participants with IPF; design: species or system human; settings: in vivo
Experimental: Safety and tolerability assessments were performed through treatment and follow-up and included evaluation of TEAEs, concomitant medications, physical examinations, vital signs, 12-lead ECGs, clinical laboratory assessments, spirometry, and cough symptoms using the validated LCQ[22] and a cough VAS. Spirometry was performed according to American Thoracic Society (ATS) / European Respiratory Society (ERS) Task Force guidelines[46] at all clinic visits, with assessments conducted both pre-and post-dose on study drug dosing days. Study staff monitored participants’ self-administration of the study drug (the morning dose) during on-site visits, and symptoms were monitored for at least 1h. […]
Exploratory biomarkers will be assessed in peripheral blood cells (as feasible), platelet rich plasma, BALF, BA samples, and deep bronchial brushings as outlined in Table 3. […]
LCQ total score is equal to the sum of the domain scores (total score range from 3 to 21) with a lower score indicating greater impairment of health status due to cough . […] If a response is not provided to a question, the domain score will be calculated as the average of the scores to the answered questions within the domain. If a subject responds to less than 80% of questions in a domain, the LCQ domain score will not be calculated and will be treated as missing during analysis. […]

[1] = test system: phosphorylated (p) AKT over total AKT; experiment: AKT/pAKT in PBMCs, MSD-ECL assay; type: in vivo, human
Experimental: Blood samples for biomarker assessments in PBMCs and platelet-rich plasma were collected prior to the initial dose and on day 14 following the last dose. Following optimization for detection of analytes in IPF matrices, meso-scale discovery electrochemiluminescence (MSD-ECL) assays were performed at BioAgylitix for SP-D (#K1519XR-2, MSD) in plasma and AKT/pAKT (#K15100D-1, MSD) in PBMCs according to manufacturer’s instructions.
Descriptive statistics are reported as medians with interquartile ranges (IQR). The Hodges-Lehmann estimator was used for the median difference between groups (treatment minus placebo), with approximate 90% confidence intervals (asymmetric, exact level varied slightly with small n). Cliff’s delta was calculated as effect size using the formula δ = (2U / (n1 × n2)) − 1, with thresholds: |δ | <0.3 small effect, 0.3–0.5 medium effect, >0.5 large effect. […] No adjustment for multiplicity was performed, as these were pre-specified, hypothesis-driven exploratory analyses. All biomarker statistical analyses were conducted using GraphPad Prism Version v10.0.

Sprague Dawley rats = settings: 28-day GLP inhalation study, delivered doses 18.4, 58.5 and 109.3 mg/kg/day, ref Investigator Brochure (IB); cited from earlier work
Experimental: (§1) Pivotal 28-day Good Laboratory Practice (GLP) toxicity studies were performed in rats and dogs. These studies were designed such that the high dose levels would achieve at least a 50-fold margin over the proposed high clinical dose as recommended in International Council for Harmonisation (ICH)-M3(R2) guidelines.

dog = settings: 28-day GLP study, delivered doses 8.9, 27.1 and 46.1 mg/kg/day, ref Investigator Brochure (IB); cited from earlier work
Experimental: as §1

Healthy Adult Subjects = settings: cited from earlier work
Experimental: Pivotal 28-day Good Laboratory Practice (GLP) toxicity studies were performed in rats and dogs. These studies were designed such that the high dose levels would achieve at least a 50-fold margin over the proposed high clinical dose as recommended in International Council for Harmonisation (ICH)-M3(R2) guidelines. […] These events were considered to be dose limiting and related to LTI-03. There was no evidence that the TEAEs in the 3 subjects described previously were secondary to an allergic response. In the 20 mg QD MAD cohorts there were mild decreases in FEV1 in two subjects that were not associated with TEAEs. These were not considered to be dose limiting. There were no serious adverse events (SAEs). All TEAEs were resolved 7 days after the treatment period. Further details can be ...

CC(C)[C@H](NC(=O)[C@@H](NC(=O)[C@H](Cc1ccccc1)NC(=O)[C@@H](NC(=O)[C@@H](NC(=O)[C@@H](N)Cc1ccccc1)[C@@H](C)O)[C@@H](C)O)[C@@H](C)O)C(=O)N[C@H](C(=O)O)[C@@H](C)O [LTI-03] (H-FTTFTVT-OH; N-terminus and C-terminus assumed)
change in LCQ total score during the treatment period (participants with IPF): No clinically significant changes
change in cough VAS during the treatment period (participants with IPF): No clinically significant changes
%p-AKT in PBMCs, Cliff's delta vs placebo ([1]; 5 mg/day): −0.33
%p-AKT in PBMCs, Cliff's delta vs placebo ([1]; 10 mg/day): −0.13
phosphorylated (p) AKT over total AKT levels in PBMCs ([1]; 5 and 10 mg/day vs placebo, 14 days): did not change
no observed adverse effect level (NOAEL), achieved delivered dose (Sprague Dawley rats): 109.3 mg/kg/day
no observed adverse effect level (NOAEL), achieved delivered dose (dog): 46.1 mg/kg/day
tolerability, 3 lower dose MAD cohorts (Healthy Adult Subjects; healthy adults, 2.5 mg QD, 5 mg QD, 5 mg BID inhaled for up to 14 days, ref study LTI-03-1001): well tolerated
TEAEs secondary to pulmonary airflow limitation, 40 mg QD MAD cohort (Healthy Adult Subjects; in vivo): dose limiting
